# Patent US10004724B2, “Compounds alpha v beta 6 integrin antagonists” (GlaxoSmithKline Intellectual Property Development Limited, priority 2014, dated 2018)
# Columns and labels:
# Type in all cases: cell-based
# K562-αvβ3 (LAP-b1) = molecular target: T1, K562-αvβ3 (LAP-b1) (Homo sapiens, UniProt P05106+P06756); experiment: Cell Adhesion Assay αvβ3; details: K562-αvβ3 cells, ligand LAP-b1, 2 mM MgCl2, BCECF-AM fluorescence; read-out: mean affinity (pIC50) αvβ3 (converted)
# T1 construct: expressed in transfected cells; host or cells: K562
# T1 sequence (P06756 31-889 limits assumed): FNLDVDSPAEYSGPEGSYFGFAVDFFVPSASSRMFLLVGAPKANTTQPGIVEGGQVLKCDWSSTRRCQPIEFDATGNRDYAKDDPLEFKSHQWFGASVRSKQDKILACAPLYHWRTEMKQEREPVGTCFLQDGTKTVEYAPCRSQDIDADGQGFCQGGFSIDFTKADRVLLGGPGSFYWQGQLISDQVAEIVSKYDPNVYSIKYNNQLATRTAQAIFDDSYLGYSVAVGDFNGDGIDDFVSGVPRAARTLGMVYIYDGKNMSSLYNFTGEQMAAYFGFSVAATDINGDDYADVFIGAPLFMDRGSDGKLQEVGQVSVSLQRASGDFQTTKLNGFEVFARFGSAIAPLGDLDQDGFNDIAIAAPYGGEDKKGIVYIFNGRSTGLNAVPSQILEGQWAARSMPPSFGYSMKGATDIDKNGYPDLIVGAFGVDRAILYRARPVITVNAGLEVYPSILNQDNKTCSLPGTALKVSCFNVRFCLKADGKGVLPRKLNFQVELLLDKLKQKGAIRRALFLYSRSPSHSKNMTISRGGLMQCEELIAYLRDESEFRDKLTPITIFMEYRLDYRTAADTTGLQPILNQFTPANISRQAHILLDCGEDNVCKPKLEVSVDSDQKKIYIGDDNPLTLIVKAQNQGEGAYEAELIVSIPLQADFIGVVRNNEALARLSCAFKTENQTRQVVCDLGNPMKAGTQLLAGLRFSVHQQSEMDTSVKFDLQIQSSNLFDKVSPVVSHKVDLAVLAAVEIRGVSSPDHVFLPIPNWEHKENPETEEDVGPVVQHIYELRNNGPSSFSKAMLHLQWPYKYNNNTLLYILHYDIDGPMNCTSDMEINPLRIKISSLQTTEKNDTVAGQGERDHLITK
# T1 sequence (P06756 891-1048 limits assumed): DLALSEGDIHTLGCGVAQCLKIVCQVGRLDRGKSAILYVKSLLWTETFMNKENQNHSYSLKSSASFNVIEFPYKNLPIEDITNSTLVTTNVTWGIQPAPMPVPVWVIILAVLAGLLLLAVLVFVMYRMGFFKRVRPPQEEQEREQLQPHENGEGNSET
# T1 sequence (P05106 27-788): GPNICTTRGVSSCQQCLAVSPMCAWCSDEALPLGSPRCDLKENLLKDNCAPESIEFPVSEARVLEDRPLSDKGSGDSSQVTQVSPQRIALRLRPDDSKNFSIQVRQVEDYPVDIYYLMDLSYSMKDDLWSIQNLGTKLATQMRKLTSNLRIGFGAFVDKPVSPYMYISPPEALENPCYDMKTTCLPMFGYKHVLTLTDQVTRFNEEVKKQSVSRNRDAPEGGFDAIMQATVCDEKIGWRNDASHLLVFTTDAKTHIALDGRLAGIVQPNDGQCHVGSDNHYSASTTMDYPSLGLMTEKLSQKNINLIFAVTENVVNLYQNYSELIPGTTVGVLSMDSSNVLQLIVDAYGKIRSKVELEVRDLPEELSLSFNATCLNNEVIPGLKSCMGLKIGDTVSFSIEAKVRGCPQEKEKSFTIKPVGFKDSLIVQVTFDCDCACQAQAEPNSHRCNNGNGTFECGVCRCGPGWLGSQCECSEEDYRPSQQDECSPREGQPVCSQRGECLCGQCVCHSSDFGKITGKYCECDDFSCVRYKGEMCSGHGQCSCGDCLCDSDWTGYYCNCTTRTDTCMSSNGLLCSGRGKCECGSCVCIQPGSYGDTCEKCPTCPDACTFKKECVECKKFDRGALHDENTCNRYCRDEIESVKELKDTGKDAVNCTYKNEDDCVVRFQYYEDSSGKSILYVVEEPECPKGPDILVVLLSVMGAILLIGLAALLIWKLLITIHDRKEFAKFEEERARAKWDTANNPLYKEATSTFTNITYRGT
# Experimental: (§1) The divalent cation used to facilitate adhesion was 2 mM MgCl2. Adhesion was quantified by cell labelling with the fluorescent dye BCECF-AM (Life Technologies), where cell suspensions at 3×10^6 cells/mL were incubated with 0.33 mL/mL of 30 mM BCECF-AM at 37° C. for 10 minutes, before dispensing into the assay plate. At the assay conclusion cells that adhered were lysed using 50 μL/well of 0.5% Triton X-100 in H2O to release fluorescence. Fluorescence intensity was detected using an Envision® plate reader (Perkin Elmer).
# K562-αvβ5 (Vitronectin) = molecular target: T2, K562-αvβ5 (Vitronectin) (Homo sapiens, UniProt P06756+P18084); experiment: Cell Adhesion Assay αvβ5; details: K562-αvβ5 cells, ligand Vitronectin, 2 mM MgCl2, BCECF-AM fluorescence; read-out: mean affinity (pIC50) αvβ5 (converted)
# T2 construct: expressed in transfected cells; host or cells: K562
# T2 sequence (P06756 31-889 limits assumed): as the sequence (P06756 31-889 limits assumed) above
# T2 sequence (P06756 891-1048 limits assumed): as the sequence (P06756 891-1048 limits assumed) above
# T2 sequence (P18084 24-799): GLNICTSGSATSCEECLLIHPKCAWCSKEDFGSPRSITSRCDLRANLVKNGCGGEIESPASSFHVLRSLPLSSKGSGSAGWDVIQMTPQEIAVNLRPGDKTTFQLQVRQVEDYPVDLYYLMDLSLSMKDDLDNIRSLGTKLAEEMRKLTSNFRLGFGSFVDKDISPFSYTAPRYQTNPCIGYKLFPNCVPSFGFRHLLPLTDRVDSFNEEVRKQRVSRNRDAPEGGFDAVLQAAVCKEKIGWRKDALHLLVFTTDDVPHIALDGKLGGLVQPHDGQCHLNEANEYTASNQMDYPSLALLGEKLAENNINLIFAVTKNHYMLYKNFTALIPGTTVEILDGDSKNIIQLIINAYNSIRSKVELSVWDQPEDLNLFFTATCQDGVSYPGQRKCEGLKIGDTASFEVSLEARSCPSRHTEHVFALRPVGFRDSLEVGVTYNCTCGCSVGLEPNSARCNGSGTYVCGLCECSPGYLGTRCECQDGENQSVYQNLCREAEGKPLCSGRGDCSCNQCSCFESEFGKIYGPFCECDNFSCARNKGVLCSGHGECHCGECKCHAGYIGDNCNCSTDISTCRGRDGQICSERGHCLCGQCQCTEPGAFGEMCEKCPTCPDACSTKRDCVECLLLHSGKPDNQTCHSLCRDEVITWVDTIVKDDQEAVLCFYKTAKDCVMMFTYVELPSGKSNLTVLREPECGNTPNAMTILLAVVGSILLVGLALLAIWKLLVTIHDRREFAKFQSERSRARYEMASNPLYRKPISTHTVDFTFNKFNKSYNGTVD
# Experimental: as §1
# K562-αvβ8 (LAP-b1) = molecular target: T3, K562-αvβ8 (LAP-b1) (Homo sapiens, UniProt P06756+P26012); experiment: Cell Adhesion Assay αvβ8; details: K562-αvβ8 cells, ligand LAP-b1, 2 mM MgCl2, BCECF-AM fluorescence; read-out: mean affinity (pIC50) αvβ8 (converted)
# T3 construct: expressed in transfected cells; host or cells: K562
# T3 sequence (P06756 31-889 limits assumed): as the sequence (P06756 31-889 limits assumed) above
# T3 sequence (P06756 891-1048 limits assumed): as the sequence (P06756 891-1048 limits assumed) above
# T3 sequence (P26012 43-769): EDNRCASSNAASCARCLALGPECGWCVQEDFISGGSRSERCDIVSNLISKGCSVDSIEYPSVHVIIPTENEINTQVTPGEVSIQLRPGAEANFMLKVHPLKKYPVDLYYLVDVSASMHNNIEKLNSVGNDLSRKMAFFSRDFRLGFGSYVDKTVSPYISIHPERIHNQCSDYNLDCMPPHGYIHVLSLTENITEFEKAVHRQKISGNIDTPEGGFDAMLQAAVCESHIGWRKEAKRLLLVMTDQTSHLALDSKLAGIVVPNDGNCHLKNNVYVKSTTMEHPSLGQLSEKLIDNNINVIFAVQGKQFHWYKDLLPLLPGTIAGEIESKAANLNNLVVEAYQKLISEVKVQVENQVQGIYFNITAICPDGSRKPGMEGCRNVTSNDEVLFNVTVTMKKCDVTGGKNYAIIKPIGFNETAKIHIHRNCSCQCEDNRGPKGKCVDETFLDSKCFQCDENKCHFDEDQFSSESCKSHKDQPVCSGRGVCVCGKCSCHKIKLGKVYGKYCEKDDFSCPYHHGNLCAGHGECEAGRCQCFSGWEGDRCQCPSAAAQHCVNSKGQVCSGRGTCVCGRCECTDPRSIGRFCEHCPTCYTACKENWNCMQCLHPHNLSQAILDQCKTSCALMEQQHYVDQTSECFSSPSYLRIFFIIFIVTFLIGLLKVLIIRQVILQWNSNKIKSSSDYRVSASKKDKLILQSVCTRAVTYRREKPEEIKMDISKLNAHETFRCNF
# Experimental: as §1
# K562-αvβ6 (LAP-b1) = molecular target: T4, K562-αvβ6 (LAP-b1) (Homo sapiens, UniProt P06756+P18564); experiment: Cell Adhesion Assay αvβ6; details: K562-αvβ6 cells, ligand LAP-b1, 2 mM MgCl2, BCECF-AM fluorescence; read-out: mean affinity (pIC50) αvβ6 (converted)
# T4 construct: expressed in transfected cells; host or cells: K562
# T4 sequence (P06756 31-889 limits assumed): as the sequence (P06756 31-889 limits assumed) above
# T4 sequence (P06756 891-1048 limits assumed): as the sequence (P06756 891-1048 limits assumed) above
# T4 sequence (P18564 22-788): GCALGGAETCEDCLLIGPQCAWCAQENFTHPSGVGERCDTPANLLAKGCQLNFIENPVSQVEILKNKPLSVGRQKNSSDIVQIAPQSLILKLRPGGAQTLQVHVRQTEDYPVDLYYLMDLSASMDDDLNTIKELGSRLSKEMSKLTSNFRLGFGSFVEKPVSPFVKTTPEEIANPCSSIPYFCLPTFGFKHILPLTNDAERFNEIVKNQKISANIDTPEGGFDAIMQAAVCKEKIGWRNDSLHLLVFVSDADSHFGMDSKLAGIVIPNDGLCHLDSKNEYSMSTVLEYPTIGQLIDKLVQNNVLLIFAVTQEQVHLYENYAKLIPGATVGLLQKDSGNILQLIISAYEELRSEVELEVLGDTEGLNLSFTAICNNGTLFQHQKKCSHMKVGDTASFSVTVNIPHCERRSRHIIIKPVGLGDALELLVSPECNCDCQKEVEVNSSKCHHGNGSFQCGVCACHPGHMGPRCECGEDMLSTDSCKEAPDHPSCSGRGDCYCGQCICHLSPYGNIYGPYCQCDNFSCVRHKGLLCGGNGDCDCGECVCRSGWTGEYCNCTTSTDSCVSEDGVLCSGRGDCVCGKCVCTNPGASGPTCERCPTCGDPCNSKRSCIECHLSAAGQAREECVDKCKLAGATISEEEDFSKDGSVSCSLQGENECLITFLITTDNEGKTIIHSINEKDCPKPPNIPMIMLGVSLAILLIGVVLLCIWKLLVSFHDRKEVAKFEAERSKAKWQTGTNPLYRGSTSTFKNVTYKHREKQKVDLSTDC
# Experimental: as §1
# αvβ1 = αvβ1 (Homo sapiens, UniProt P05556+P06756); experiment: Cell Adhesion Assay αvβ1; details: cell line and ligand for αvβ1 not listed in method, read-out: mean affinity (pIC50) αvβ1 (converted)
IC50 (K562-αvβ3 (LAP-b1)) [nM],IC50 (K562-αvβ5 (Vitronectin)) [nM],IC50 (K562-αvβ8 (LAP-b1)) [nM],IC50 (K562-αvβ6 (LAP-b1)) [nM],IC50 (αvβ1) [nM],SMILES
6310,158,31.6,,,"Cc1ccn(-c2cc(C(CC(=O)O)CN3CC[C@@H](CCc4ccc5c(n4)NCCC5)C3)cc(N3CCOCC3)c2)n1 (mixture of isomers) [Example 4, 3-(3-(3-methyl-1H-pyrazol-1-yl)-5-morpholinophenyl)-4-((R)-3-(2-(5,6,7,8-tetrahydro-1,8-naphthyridin-2-yl)ethyl)pyrrolidin-1-yl)butanoic acid]"
3980,200,15.8,3.16,50.1,"O=C(O)C[C@H](CN1CC[C@@H](CCc2ccc3c(n2)NCCC3)C1)c1cc(N2CCOCC2)cc(-n2cccn2)c1 [Example 3, (S)-3-(3-morpholino-5-(1H-pyrazol-1-yl)phenyl)-4-((R)-3-(2-(5,6,7,8-tetrahydro-1,8-naphthyridin-2-yl)ethyl)pyrrolidin-1-yl)butanoic acid]"
1260,50.1,7.94,3.16,10,"O=C(O)C[C@H](CN1CC[C@@H](CCc2ccc3c(n2)NCCC3)C1)c1cc(-c2ccn[nH]2)cc(N2CCOCC2)c1 [Example 6, (S)-3-(3-Morpholino-5-(1H-pyrazol-5-yl)phenyl)-4-((R)-3-(2-(5,6,7,8-tetrahydro-1,8-naphthyridin-2-yl)ethyl)pyrrolidin-1-yl)butanoic acid]"
2000,200,25.1,10,,"Cc1cc(-c2cc([C@H](CC(=O)O)CN3CC[C@@H](CCc4ccc5c(n4)NCCC5)C3)cc(N3CCOCC3)c2)[nH]n1 [Example 7, (S)-3-(3-(3-Methyl-1H-pyrazol-5-yl)-5-morpholinophenyl)-4-((R)-3-(2-(5,6,7,8-tetrahydro-1,8-naphthyridin-2-yl)ethyl)pyrrolidin-1-yl)butanoic acid]"
3980,63.1,5.01,5.01,,"O=C(O)C[C@H](CN1CC[C@@H](CCc2ccc3c(n2)NCCC3)C1)c1cc(-c2cn[nH]c2)cc(N2CCOCC2)c1 [Example 8, (S)-3-(3-Morpholino-5-(1H-pyrazol-4-yl)phenyl)-4-((R)-3-(2-(5,6,7,8-tetrahydro-1,8-naphthyridin-2-yl)ethyl)pyrrolidin-1-yl)butanoic acid]"
